Test results reported in patent publication US9969758B2, “Antimicrobial compounds” (BIOMERIEUX, priority 2014, dated 2018).
≈ marks a conversion by molar mass, not a printed value.

What was measured:
Experiment in all cases: MIC by agar dilution
E. coli (53) = type: cell-based, Escherichia coli
Summary of the method: (§1)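 Agar dilution on peptone-free medium with 2% lysed horse blood, NAD and hemin (25.0 μg/mL each), compounds 0.0031 to 8.0 μg/mL; inoculum 10 000 CFU/spot, 22 h at 37° C. Fosfomycin tested in IsoSensitest medium plus 25.0 μg/mL glucose-6-phosphate; at least two replicates.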

K. pneumoniae (87) = type: cell-based, Klebsiella pneumoniae; conditions: Klebsiella pneumoniae
Summary of the method: as §1

E. cloacae (27) = type: cell-based, Enterobacter cloacae
Summary of the method: as §1

AmpC (22) = type: cell-based, Enterobacteriaceae
Summary of the method: as §1

All S. aureus (50) = type: cell-based, Staphylococcus aureus; conditions: All S. aureus (50)
Summary of the method: (§2)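 Agar dilution in peptone-free medium with 2% saponin-lysed horse blood, 25.0 μg/mL NAD and 25.0 μg/mL hemin; compounds at 0.016–32 μg/mL for gram-positives. Inoculum 10 000 CFU/spot; plates incubated 22 hours at 37° C, at least two independent replicates.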

All Enterococci (50) = type: cell-based; conditions: All Enterococci (50)
Summary of the method: as §2

[1] = system: glycopeptide-resistant enterococci; type: cell-based
Summary of the method: as §2

[2] = system: methicillin-sensitive Staphylococcus aureus; type: cell-based; conditions: MSSA (13)
Summary of the method: as §2

E. faecalis (11) = type: cell-based, Enterococcus faecalis; conditions: Enterococcus faecalis, E. faecalis (11)
Summary of the method: as §2

E. faecium (34) = type: cell-based, Enterococcus faecium
Summary of the method: as §2

Citrobacter (n=9) = type: cell-based
Summary of the method: as §1

Enterobacteriaceae (197) = type: cell-based; conditions: Enterobacteriaceae (197)
Summary of the method: as §1

[3] = system: Enterobacteriaceae with a broad-spectrum β-lactamase; type: cell-based
Summary of the method: as §1

[4] = system: carbapenemase-producing Enterobacteriaceae; type: cell-based
Summary of the method: as §1

Kluyvera sp. (n=1) = type: cell-based, Kluyvera spp
From the text: (§3) Bacterial isolates. […] These included Citrobacter freundii (n=5), other species of Citrobacter (n=4), Enterobacter aerogenes (n=1), Enterobacter cloacae (n=27), Escherichia coli (n=53), Klebsiella oxytoca (n=5), Klebsiella pneumoniae (n=87), Kluyvera spp (n=1), Proteus mirabilis (n=8), Providencia rettgeri (n=2), Salmonella spp (n=3), and Serratia marcescens (n=1). Among these 197 isolates, there were 128 (65%) carbapenemase producers, including; 87 with NDM-1, 9 with IMP, 11 with KPC, 14 with OXA-48 and 7 with VIM. The majority of the carbapenemase producers jointly produced broad-spectrum β-lactamases (BSBL) or cephalosporinases (AmpC β-lactamases), but the latter are not documented for the sake of clarity.
(§4) Determining the minimum inhibitory concentrations (MIC). All the MICs were determined using an agar dilution method. This required use of a medium without a defined antagonist (peptone-free), prepared as described previously with the inclusion of 2% horse blood lysed with saponin, 25.0 μg/mL of NAD and 25.0 μg/mL of hemin [17]. […] The MICs of fosfomycin were determined by the same method, except that the IsoSensitest medium (Oxoid, Basingstoke, United Kingdom) was used, plus 25.0 μg/mL of glucose-6-phosphate (Sigma, Poole, United Kingdom) and an extended range of fosfomycin concentrations. […]

S. marcescens (n=1) = type: cell-based, Serratia marcescens
From the text: as §3, §4

K. oxytoca = type: cell-based, Klebsiella oxytoca; conditions: Klebsiella oxytoca; one of the five isolates of K. oxytoca
From the text: as §3, §4

Salmonella isolates = type: cell-based, Salmonella spp; conditions: three Salmonella isolates; read-out: MICs
From the text: as §3, §4

[5] = read-out: Modal MIC (most frequent MIC)
[6] = Staphylococcus aureus, read-out: MIC50
[7] = Staphylococcus aureus, read-out: MIC90
[8] = Staphylococcus aureus, read-out: Modal MIC (most frequent MIC)

In the case of `C[C@H](N)C(=O)N[C@@H](C)P(=O)(O)O` [Alafosfalin, L-alanyl-L-1-aminoethylphosphonic acid], the “concentration by which growth of all the isolates was inhibited” value (E. coli (53); 53 isolates of E. coli) is reported as 2 µg/mL, the “activity relative to that of fosfomycin” value (E. coli (53); E. coli) is reported as “approximately four” and the “MIC Range” value (E. coli (53); E. coli (53)) is reported as ≤0.031-2 ^ μg/mL. It also gave an MIC50 (E. coli (53); Escherichia coli, E. coli (53), read-out: MIC50) of 0.125 µg/mL (≈ 0.637 µM), an MIC90 (E. coli (53); Escherichia coli, E. coli (53), read-out: MIC90) of 0.25 µg/mL (≈ 1.27 µM) and an MIC (E. coli (53); Escherichia coli, E. coli (53), read-out: Modal MIC (most frequent MIC)) of 0.063 µg/mL (≈ 0.321 µM). For the same compound, the MIC50 (K. pneumoniae (87); K. pneumoniae (87), read-out: MIC50) was 2 µg/mL (≈ 10.2 µM), the MIC90 (K. pneumoniae (87); K. pneumoniae (87), read-out: MIC90) was greater than 8 µg/mL and the MIC (K. pneumoniae (87); K. pneumoniae (87), read-out: Modal MIC (most frequent MIC)) was 2 µg/mL (≈ 10.2 µM). For the same compound, the percent of isolates inhibited at 8 µg/mL (K. pneumoniae (87); K. pneumoniae isolates, at 8 μg/mL, read-out: isolates inhibited) was 87%, the “activity relative to fosfomycin” value (E. cloacae (27); E. cloacae) was roughly 32 times and the “MIC Range” value (E. cloacae (27); E. cloacae (27)) was 0.125 to 4 µg/mL. The “concentration by which all the isolates were inhibited” value (E. cloacae (27); E. cloacae isolates (n=27)) was 4 µg/mL, the MIC50 (E. cloacae (27); Enterobacter cloacae, E. cloacae (27), read-out: MIC50) was 1 µg/mL (≈ 5.1 µM) and the MIC90 (E. cloacae (27); Enterobacter cloacae, E. cloacae (27), read-out: MIC90) was 1 µg/mL (≈ 5.1 µM). The MIC (E. cloacae (27); Enterobacter cloacae, E. cloacae (27), read-out: Modal MIC (most frequent MIC)) was 1 µg/mL (≈ 5.1 µM), the MIC50 (AmpC (22)) was 4 µg/mL (≈ 20.4 µM) and the MIC90 (AmpC (22)) was greater than 8 µg/mL. The MIC (AmpC (22); [5]) was greater than 8 µg/mL, the “MIC Range” value (All S. aureus (50)) was 0.125 to 16 µg/mL and the MIC50 (All S. aureus (50); [6]) was 4 µg/mL (≈ 20.4 µM). It also gave an MIC90 (All S. aureus (50); [7]) of 8 µg/mL (≈ 40.8 µM), an MIC (All S. aureus (50); [8]) of 4 µg/mL (≈ 20.4 µM) and an MIC50 (All Enterococci (50); read-out: MIC50) of 16 µg/mL (≈ 81.6 µM). The MIC90 (All Enterococci (50); read-out: MIC90) was greater than 32 µg/mL, the MIC (All Enterococci (50); [5]) was 8 µg/mL (≈ 40.8 µM) and the MIC50 [1] was 16 µg/mL (≈ 81.6 µM). The MIC90 [1] was greater than 32 µg/mL, the MIC [1, 5] was 16 µg/mL (≈ 81.6 µM) and the “MIC Range” value [2] was 0.25 to 16 µg/mL. For the same compound, the MIC50 [2, 6] was 4 µg/mL (≈ 20.4 µM), the MIC90 [2, 7] was 8 µg/mL (≈ 40.8 µM) and the MIC [2, 8] was 4 µg/mL (≈ 20.4 µM). It also gave an MIC50 (E. faecalis (11); read-out: MIC50) of 8 µg/mL (≈ 40.8 µM), an MIC90 (E. faecalis (11); read-out: MIC90) of 32 µg/mL (≈ 163 µM) and an MIC (E. faecalis (11); [5]) of 8 µg/mL (≈ 40.8 µM). The “concentration by which all isolates were inhibited” value (E. faecium (34); 34 E. faecium isolates (including 31 vancomycin-resistant)) was 32 µg/mL, the “MIC Range” value (E. faecium (34); E. faecium (34)) was 4 to 32 µg/mL and the MIC50 (E. faecium (34); Enterococcus faecium, E. faecium (34), read-out: MIC50) was 16 µg/mL (≈ 81.6 µM). For the same compound, the MIC90 (E. faecium (34); Enterococcus faecium, E. faecium (34), read-out: MIC90) was 16 µg/mL (≈ 81.6 µM), the MIC (E. faecium (34); Enterococcus faecium, E. faecium (34), read-out: Modal MIC (most frequent MIC)) was 16 µg/mL (≈ 81.6 µM) and the “concentration to which all the isolates were sensitive” value (Citrobacter (n=9)) was no more than 4 µg/mL. It also gave an MIC50 (Enterobacteriaceae (197); read-out: MIC50) of 2 µg/mL (≈ 10.2 µM), an MIC90 (Enterobacteriaceae (197); read-out: MIC90) greater than 8 µg/mL and an MIC (Enterobacteriaceae (197); [5]) of 2 µg/mL (≈ 10.2 µM). For the same compound, the MIC50 [3] was 2 µg/mL (≈ 10.2 µM), the MIC90 [3] was greater than 8 µg/mL and the MIC [3, 5] was 2 µg/mL (≈ 10.2 µM). The MIC50 [4] was 1 µg/mL (≈ 5.1 µM), the MIC90 [4] was 4 µg/mL (≈ 20.4 µM) and the MIC [4, 5] was 2 µg/mL (≈ 10.2 µM). The “concentration to which all the isolates were sensitive” value (Kluyvera sp. (n=1)) was no more than 4 µg/mL, the “concentration to which all the isolates were sensitive” value (S. marcescens (n=1)) was no more than 4 µg/mL and the MIC (K. oxytoca) was greater than 8 µg/mL. The MIC (Salmonella isolates) was no less than 8 µg/mL.
